Tested on: phospho-IκBα (Ser32)
Experiment: NanoBiT cell-based immunoassay, phosphorylated IκBα in MCF-7 cells
Design: species or system human
Details: for Raw data / Subtract reagent background: TNF
Method: Prior to NanoBiT Cell-Based Immunoassay, 50,000 cells were seeded in 160 µl of complete growth media per well of a 96-well plate and incubated overnight. The cells were checked under microscope and it was determined that 50,000 cells per well in 96-well plate is under 90% confluency for all cells tested. If necessary, the cell culture media were replaced with serum-free media after the cells were stably adherent on the plate and incubated overnight. To treat cells with activators or inhibitors, medium was changed to 30 µl of medium containing inhibitors. If activation of a specific pathway is needed, the cells were stimulated with 10 µl of medium containing activators. To lyse the cells, 10 µl of lysis buffer containing 0.1% digitonin diluted in 1X immunoassay buffer with protease and phosphatase inhibitors was added and the plates were mixed vigorously for 20 min. Then, 50 µl of an antibody mix containing two primary antibodies against the target protein and NanoBiT detecting antibodies (0.3 µl each per well), diluted in 1X immunoassay buffer was added to the lysates. The plates were incubated at 23 °C for 90 min, followed by the addition of 25 µl of Nano-Glo® reagent consisting of Nano-Glo® Luciferase Assay Substrate mixed with 1X immunoassay buffer. Luminescence was measured using a plate-reading luminometer.
In all, 50,000 MCF-7 cells were seeded in 160 µl complete growth medium per well of a 96-well plate and incubated overnight. Half of the cells were treated with 50 ng per ml TNFα and half with vehicle. Cells were lysed as described above and a mixture of NanoBiT secondary antibodies with primary antibodies at the matrix concentrations described in Fig. 2a were added. After 90 min incubation, the Nano-Glo® reagent was added to the reactions as described above and luminescence was measured using a plate-reading luminometer.
Single dose or dose response inhibitor treatments were performed prior to activation of the pathways as follows. For IκBα, the cells were treated in 30 µl medium with IKK16 or MG132 for 60 min before the addition of 10 µl of DMEM containing appropriate concentration of TNFα. To measure phosphorylation of AKT or STAT3, the corresponding NanoBiT immunoassays were developed with MCF-7 or A431 cells, respectively, according the same scheme used to develop the IκBα assay using the primary antibodies for AKT and STAT3 described in the reagents section. For the AKT assay, MCF-7 cells were incubated overnight in phenol-red free DMEM medium (Gibco #21063-029) without serum. Treatment with LY294002 was performed in 30 µl medium and cells were incubated for 60 min before the addition of 1 µM Insulin. To measure STAT3 phosphorylation, A431 cells were incubated overnight in DMEM medium without serum. […] After addition of the stimulators, the cells were incubated for additional times as follows. IκBα phosphorylation and degradation analyses required both time courses and single time points as described in figures. […] The NanoBiT immunoassay protocol was followed as described above.
All 96-well assay plates were read using a GloMax® 96 Microplate Luminometer from Promega. The instrument was set to 0.5 s integration time. In order to obtain net change of signal, the reagent background values (signal from the well containing all reagent except primary antibodies) were subtracted from the sample values. To plot and analyze the data, Microsoft Excel and GraphPad Prism® Software were used. IC50 values were determined by using a nonlinear regression fit to a sigmoidal dose response (variable slope).

[1] = plate #3, IkB Ab #3 75 ng/ml, P-IkB Ab #2 75 ng/ml
[2] = plate #3, IkB Ab #3 75 ng/ml, P-IkB Ab #2 150 ng/ml
[3] = plate #3, IkB Ab #3 75 ng/ml, P-IkB Ab #2 300 ng/ml
[4] = plate #3, IkB Ab #3 75 ng/ml, P-IkB Ab #2 600 ng/ml
[5] = plate #3, IkB Ab #3 75 ng/ml, P-IkB Ab #2 1200 ng/ml
[6] = plate #3, IkB Ab #3 150 ng/ml, P-IkB Ab #2 75 ng/ml
[7] = plate #3, IkB Ab #3 150 ng/ml, P-IkB Ab #2 150 ng/ml
[8] = plate #3, IkB Ab #3 150 ng/ml, P-IkB Ab #2 300 ng/ml
[9] = plate #3, IkB Ab #3 150 ng/ml, P-IkB Ab #2 600 ng/ml
[10] = plate #3, IkB Ab #3 150 ng/ml, P-IkB Ab #2 1200 ng/ml
[11] = plate #3, IkB Ab #3 300 ng/ml, P-IkB Ab #2 75 ng/ml
[12] = plate #3, IkB Ab #3 300 ng/ml, P-IkB Ab #2 150 ng/ml
[13] = plate #3, IkB Ab #3 300 ng/ml, P-IkB Ab #2 300 ng/ml
[14] = plate #3, IkB Ab #3 300 ng/ml, P-IkB Ab #2 600 ng/ml
[15] = plate #3, IkB Ab #3 300 ng/ml, P-IkB Ab #2 1200 ng/ml
[16] = plate #3, IkB Ab #3 600 ng/ml, P-IkB Ab #2 75 ng/ml
[17] = plate #3, IkB Ab #3 600 ng/ml, P-IkB Ab #2 150 ng/ml
[18] = plate #3, IkB Ab #3 600 ng/ml, P-IkB Ab #2 300 ng/ml
[19] = plate #3, IkB Ab #3 600 ng/ml, P-IkB Ab #2 600 ng/ml
[20] = plate #3, IkB Ab #3 600 ng/ml, P-IkB Ab #2 1200 ng/ml
[21] = plate #3, IkB Ab #3 1200 ng/ml, P-IkB Ab #2 75 ng/ml
[22] = plate #3, IkB Ab #3 1200 ng/ml, P-IkB Ab #2 150 ng/ml
[23] = plate #3, IkB Ab #3 1200 ng/ml, P-IkB Ab #2 300 ng/ml
[24] = plate #3, IkB Ab #3 1200 ng/ml, P-IkB Ab #2 600 ng/ml
[25] = plate #3, IkB Ab #3 1200 ng/ml, P-IkB Ab #2 1200 ng/ml

TNFα
Fold change (TNF-treated /Non-treated) (plate #2, IkB Ab #2 (Mouse) 600 ng/ml, P-IkB Ab #1 (Rabbit) 1200 ng/ml, listed as TNF): 0.8 | Fold change (TNF-treated /Non-treated) (plate #2, IkB Ab #2 (Mouse) 1200 ng/ml, P-IkB Ab #1 (Rabbit) 75 ng/ml): 1.511 | Fold change (TNF-treated /Non-treated) (plate #2, IkB Ab #2 (Mouse) 1200 ng/ml, P-IkB Ab #1 (Rabbit) 75 ng/ml, listed as TNF): 1.5 | Fold change (TNF-treated /Non-treated) (plate #2, IkB Ab #2 (Mouse) 1200 ng/ml, P-IkB Ab #1 (Rabbit) 150 ng/ml): 2.468 | Fold change (TNF-treated /Non-treated) (plate #2, IkB Ab #2 (Mouse) 1200 ng/ml, P-IkB Ab #1 (Rabbit) 150 ng/ml, listed as TNF): 2.5 | Fold change (TNF-treated /Non-treated) (plate #2, IkB Ab #2 (Mouse) 1200 ng/ml, P-IkB Ab #1 (Rabbit) 300 ng/ml): 2.168 | Fold change (TNF-treated /Non-treated) (plate #2, IkB Ab #2 (Mouse) 1200 ng/ml, P-IkB Ab #1 (Rabbit) 300 ng/ml, listed as TNF): 2.2 | Fold change (TNF-treated /Non-treated) (plate #2, IkB Ab #2 (Mouse) 1200 ng/ml, P-IkB Ab #1 (Rabbit) 600 ng/ml): 2.1086 | Fold change (TNF-treated /Non-treated) (plate #2, IkB Ab #2 (Mouse) 1200 ng/ml, P-IkB Ab #1 (Rabbit) 600 ng/ml, listed as TNF): 2.1 | Fold change (TNF-treated /Non-treated) (plate #2, IkB Ab #2 (Mouse) 1200 ng/ml, P-IkB Ab #1 (Rabbit) 1200 ng/ml): 1.784 | Fold change (TNF-treated /Non-treated) (plate #2, IkB Ab #2 (Mouse) 1200 ng/ml, P-IkB Ab #1 (Rabbit) 1200 ng/ml, listed as TNF): 1.8 | Raw data [1]: 20510 | Subtract reagent background [1]: 5320 | Raw data [2]: 20430 | Subtract reagent background [2]: 5240 | Raw data [3]: 19120 | Subtract reagent background [3]: 3930 | Raw data [4]: 17590 | Subtract reagent background [4]: 2400 | Raw data [5]: 16090 | Subtract reagent background [5]: 900 | Raw data [6]: 27550 | Subtract reagent background [6]: 12360 | Raw data [7]: 26450 | Subtract reagent background [7]: 11260 | Raw data [8]: 24490 | Subtract reagent background [8]: 9300 | Raw data [9]: 21590 | Subtract reagent background [9]: 6400 | Raw data [10]: 19970 | Subtract reagent background [10]: 4780 | Raw data [11]: 26220 | Subtract reagent background [11]: 11030 | Raw data [12]: 24040 | Subtract reagent background [12]: 8850 | Raw data [13]: 23970 | Subtract reagent background [13]: 8780 | Raw data [14]: 20830 | Subtract reagent background [14]: 5640 | Raw data [15]: 19500 | Subtract reagent background [15]: 4310 | Raw data [16]: 24590 | Subtract reagent background [16]: 9400 | Raw data [17]: 22810 | Subtract reagent background [17]: 7620 | Raw data [18]: 23190 | Subtract reagent background [18]: 8000 | Raw data [19]: 21540 | Subtract reagent background [19]: 6350 | Raw data [20]: 20460 | Subtract reagent background [20]: 5270 | Raw data [21]: 23630 | Subtract reagent background [21]: 8440 | Raw data [22]: 23620 | Subtract reagent background [22]: 8430 | Raw data [23]: 22930 | Subtract reagent background [23]: 7740 | Raw data [24]: 22240 | Subtract reagent background [24]: 7050 | Raw data [25]: 21740 | Subtract reagent background [25]: 6550 | Fold change (TNF-treated /Non-treated) (plate #3, IkB Ab #3 (Rabbit) 150 ng/ml, P-IkB Ab #2 (Mouse) 75 ng/ml): 3.572 | Fold change (TNF-treated /Non-treated) (plate #3, IkB Ab #3 (Rabbit) 150 ng/ml, P-IkB Ab #2 (Mouse) 150 ng/ml): 2.066 | Fold change (TNF-treated /Non-treated) (plate #3, IkB Ab #3 (Rabbit) 150 ng/ml, P-IkB Ab #2 (Mouse) 300 ng/ml): 1.553 | Fold change (TNF-treated /Non-treated) (plate #3, IkB Ab #3 (Rabbit) 150 ng/ml, P-IkB Ab #2 (Mouse) 600 ng/ml): 1.339 | Fold change (TNF-treated /Non-treated) (plate #3, IkB Ab #3 (Rabbit) 150 ng/ml, P-IkB Ab #2 (Mouse) 1200 ng/ml): 0.8968 | Fold change (TNF-treated /Non-treated) (plate #3, IkB Ab #3 (Rabbit) 300 ng/ml, P-IkB Ab #2 (Mouse) 75 ng/ml): 2.895 | Fold change (TNF-treated /Non-treated) (plate #3, IkB Ab #3 (Rabbit) 300 ng/ml, P-IkB Ab #2 (Mouse) 150 ng/ml): 1.664 | Fold change (TNF-treated /Non-treated) (plate #3, IkB Ab #3 (Rabbit) 300 ng/ml, P-IkB Ab #2 (Mouse) 300 ng/ml): 1.602 | Fold change (TNF-treated /Non-treated) (plate #3, IkB Ab #3 (Rabbit) 300 ng/ml, P-IkB Ab #2 (Mouse) 600 ng/ml): 1.153 | Fold change (TNF-treated /Non-treated) (plate #3, IkB Ab #3 (Rabbit) 300 ng/ml, P-IkB Ab #2 (Mouse) 1200 ng/ml): 0.9289 | Fold change (TNF-treated /Non-treated) (plate #3, IkB Ab #3 (Rabbit) 600 ng/ml, P-IkB Ab #2 (Mouse) 75 ng/ml): 2.035 | Fold change (TNF-treated /Non-treated) (plate #3, IkB Ab #3 (Rabbit) 600 ng/ml, P-IkB Ab #2 (Mouse) 150 ng/ml): 1.414 | Fold change (TNF-treated /Non-treated) (plate #3, IkB Ab #3 (Rabbit) 600 ng/ml, P-IkB Ab #2 (Mouse) 300 ng/ml): 1.541 | Fold change (TNF-treated /Non-treated) (plate #3, IkB Ab #3 (Rabbit) 600 ng/ml, P-IkB Ab #2 (Mouse) 600 ng/ml): 1.301 | Fold change (TNF-treated /Non-treated) (plate #3, IkB Ab #3 (Rabbit) 600 ng/ml, P-IkB Ab #2 (Mouse) 1200 ng/ml): 1.1557 | Fold change (TNF-treated /Non-treated) (plate #3, IkB Ab #3 (Rabbit) 1200 ng/ml, P-IkB Ab #2 (Mouse) 75 ng/ml): 1.581 | Fold change (TNF-treated /Non-treated) (plate #3, IkB Ab #3 (Rabbit) 1200 ng/ml, P-IkB Ab #2 (Mouse) 150 ng/ml): 1.544 | Fold change (TNF-treated /Non-treated) (plate #3, IkB Ab #3 (Rabbit) 1200 ng/ml, P-IkB Ab #2 (Mouse) 300 ng/ml): 1.173 | Fold change (TNF-treated /Non-treated) (plate #3, IkB Ab #3 (Rabbit) 1200 ng/ml, P-IkB Ab #2 (Mouse) 600 ng/ml): 1.469 | Fold change (TNF-treated /Non-treated) (plate #3, IkB Ab #3 (Rabbit) 1200 ng/ml, P-IkB Ab #2 (Mouse) 1200 ng/ml): 1.2818

From publication PMC6941952, “A homogeneous bioluminescent immunoassay to probe cellular signaling pathway regulation” (Communications Biology, 2020)
